According to ChEMBL document CHEMBL5725500, “Substituted spiropiperidinyl compounds useful as GPR120 agonists” (2017):

Molecular target: T1, Free fatty acid receptor 4 (Homo sapiens, UniProt Q5NUL3)
T1 sequence (Q5NUL3 whole entry): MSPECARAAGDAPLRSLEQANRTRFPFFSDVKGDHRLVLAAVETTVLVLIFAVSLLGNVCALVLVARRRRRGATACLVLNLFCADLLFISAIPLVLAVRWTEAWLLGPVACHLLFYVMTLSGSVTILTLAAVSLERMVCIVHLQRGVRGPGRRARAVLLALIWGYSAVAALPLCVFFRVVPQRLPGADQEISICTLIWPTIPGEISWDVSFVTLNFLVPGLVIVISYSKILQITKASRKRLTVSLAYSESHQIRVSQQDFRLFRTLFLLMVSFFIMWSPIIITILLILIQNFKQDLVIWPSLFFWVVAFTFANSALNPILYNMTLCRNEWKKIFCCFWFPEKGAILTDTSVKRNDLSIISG
Assay: FLIPR Assay: On the day before the measurement day, CHO cells expressing human GPR120 were plated at 10000 cells per well in a 384-well black plate (#3702, Corning) and incubated overnight in a CO2 incubator. On the day of the measurement, 4 μM Fluo-4 AM (fluorescence calcium indicator reagent) was incubated to be introduced into the human GPR120 expression CHO cells in the presence of 0.08% Pluronic F-127 in a CO2 incubator for 90 minutes. To the cells was added the test compound diluted with HBSS solution containing 20 mM HEPES and 2.5 mM probenecid. Variations in the intracellular calcium concentration were measured by Fluorescence Imaging Plate Reader (FLIPR; Molecular Devices) to examine the agonist action, and EC50 values were calculated.
Type: cell-based

SMILES	EC50 [nM]
OCCC1CCC2(CC1)CCN(c1cc(OC(F)(F)F)ccc1Cl)CC2	472
Cc1cccc(Oc2ccc(C#N)c(N3CCC4(CCC(CC(=O)O)CC4)CC3)c2)n1	4220
O=C(O)C[C@@H]1CCC2(CCN(c3cc(OC4CCC4)ccc3F)CC2)OC1	3240
O=C(O)CC1CCC2(CCN(c3cc(OC(F)(F)F)ccc3F)CC2)OC1 (configuration not stated)	1210
O=C(O)C[C@H]1CCC2(CCN(c3cc(OC4CCC4)ccc3Cl)CC2)OC1	1650
COc1cc(F)cc(N2CCC3(CC2)CC(CC(=O)O)CO3)c1 (configuration not stated)	2380
Cc1ccnc(Oc2ccc(C#N)c(N3CCC4(CCC(CC(=O)O)CC4)CC3)c2)c1	4970
